One assay addresses T1, GABA A receptor α3β3γ2 (Homo sapiens, UniProt P18507+P34903).
T1 construct: expressed in transfected cells; host or cells: HEK293 (transiently transfected), membranes
Kind of assay: [3H]flumazenil competition binding, human α3β3γ2. Conditions: for Ki: HEK293 cell membranes, human (transiently transfected) receptor, 1 nM [3H]flumazenil, mean of two determinations, read-out: Ki[nM] hα3. How it is done:
(§1) The affinity of compounds at GABA A receptor subtypes was measured by competition for [^3H]flumazenil (85 Ci/mmol; Roche) binding to HEK293 cells expressing rat (stably transfected) or human (transiently transfected) receptors of composition α1β3γ2, α2β3γ2, α3β3γ2 and α5β3γ2.
(§2) Cell pellets were suspended in Krebs-tris buffer (4.8 mM KCl, 1.2 mM CaCl2, 1.2 mM MgCl2, 120 mM NaCl, 15 mM Tris; pH 7.5; binding assay buffer), homogenized by polytron for ca. 20 sec on ice and centrifuged for 60 min at 4° C. (50000 g; Sorvall, rotor: SM24=20000 rpm). The cell pellets were resuspended in Krebs-tris buffer and homogenized by polytron for ca. 15 sec on ice. Protein was measured (Bradford method, Bio-Rad) and aliquots of 1 mL were prepared and stored at −80° C.
(§3) Radioligand binding assays were carried out in a volume of 200 μL (96-well plates) which contained 100 μL of cell membranes, [^3H]flumazenil at a concentration of 1 nM for α1, α2, α3 subunits and 0.5 nM for α5 subunits and the test compound in the range of 10^−10−3×10^−6 M. Nonspecific binding was defined by 10^−5 M diazepam and typically represented less than 5% of the total binding. Assays were incubated to equilibrium for 1 hour at 4° C. and harvested onto GF/C uni-filters (Packard) by filtration using a Packard harvester and washing with ice-cold-wash buffer (50 mM Tris; pH 7.5). After drying, filter-retained radioactivity was detected by liquid scintillation counting. Ki values were calculated using Excel-Fit (Microsoft) and are the means of two determinations.

In a further assay the target is T2, GABA A receptor α2β3γ2 (Homo sapiens, UniProt P18507+P47869).
T2 construct: expressed in transfected cells; host or cells: HEK293 (transiently transfected), membranes
In words: [3H]flumazenil competition binding, human α2β3γ2. The conditions noted are these: for Ki: HEK293 cell membranes, human (transiently transfected) receptor, 1 nM [3H]flumazenil, mean of two determinations, read-out: Ki[nM] hα2. How it is done: as §1, §2, §3

A further assay concerns the target T3, GABA A receptor α1β3γ2 (Homo sapiens, UniProt P14867+P18507).
T3 construct: expressed in transfected cells; host or cells: HEK293 (transiently transfected), membranes
Kind of assay: [3H]flumazenil competition binding, human α1β3γ2. The conditions noted are these: for Ki: HEK293 cell membranes, human (transiently transfected) receptor, 1 nM [3H]flumazenil, mean of two determinations, read-out: Ki[nM] hα1. How it is done:
as §1, §2, §3

Another assay addresses T4, GABA A receptor α5β3γ2 (Homo sapiens, UniProt P18507+P31644).
T4 construct: expressed in transfected cells; host or cells: HEK293 (transiently transfected), membranes
Kind of assay: [3H]flumazenil competition binding, human α5β3γ2. The conditions noted are these: for Ki: HEK293 cell membranes, human (transiently transfected) receptor, 0.5 nM [3H]flumazenil, mean of two determinations, read-out: Ki[nM] hα5. How it is done: as §1, §2, §3

Molecules are shown by their SMILES. pKi: −log10 of the molar value. Like-named read-outs stand apart in the source and are kept apart here.

This is an account of results in patent US7671048B2, “Substituted imidazo [1,5-a][1,2,4]triazolo[1,5-d][1,4]benzodiazepine derivatives” (priority 2004, dated 2010).

Broadly, the Ki is a dissociation constant, usually derived from enzyme kinetics or from competition with a known ligand. With `CC(=O)c1ncn2c1Cn1ncnc1-c1cc(F)ccc1-2` [Example 1, 1-[3-Fluoro-9H-imidazo[1,5-a][1,2,4]triazolo[1,5-d][1,4]benzodiazepin-10-yl]-ethanone], the inhibition constant Ki was found to be 233 nM on GABA A receptor α3β3γ2, 183 nM at GABA A receptor α2β3γ2, 314 nM on GABA A receptor α1β3γ2 and 104 nM at GABA A receptor α5β3γ2.

For orientation: pKi means the negative decadic logarithm of the Ki, by convention in mol/L. Higher therefore signals a small Ki. Consider `CCC(=O)c1ncn2c1Cn1ncnc1-c1cc(F)ccc1-2` [Example 2, 1-[3-Fluoro-9H-imidazo[1,5-a][1,2,4]triazolo[1,5-d][1,4]benzodiazepin-10-yl]-propan-1-one], for which the pKi at GABA A receptor α3β3γ2 is 8.41; on GABA A receptor α2β3γ2 it was 8.47; at GABA A receptor α1β3γ2 it was 8.21; on GABA A receptor α5β3γ2 it was 8.66.

With `O=C(c1ncn2c1Cn1ncnc1-c1cc(F)ccc1-2)C1CC1` [Example 3, Cyclopropyl-[3-fluoro-9H-imidazo[1,5-a][1,2,4]triazolo[1,5-d][1,4]benzodiazepin-10-yl]-methanone], the pKi is 8.74 on GABA A receptor α3β3γ2, 8.70 at GABA A receptor α2β3γ2, 8.55 at GABA A receptor α1β3γ2 and 8.92 on GABA A receptor α5β3γ2.

Consider `O=C(CCCc1ccccc1)c1ncn2c1Cn1ncnc1-c1cc(F)ccc1-2` [Example 4, 1-[3-Fluoro-9H-imidazo[1,5-a][1,2,4]triazolo[1,5-d][1,4]benzodiazepin-10-yl]-4-phenyl-butan-1-one], for which the pKi at GABA A receptor α3β3γ2 was 7.25; on GABA A receptor α2β3γ2, 7.22; on GABA A receptor α1β3γ2, 7.34; at GABA A receptor α5β3γ2, 7.79.

With `CCC(=O)c1ncn2c1Cn1ncnc1-c1cc(Cl)ccc1-2` [Example 5, 1-[3-Chloro-9H-imidazo[1,5-a][1,2,4]triazolo[1,5-d][1,4]benzodiazepin-10-yl]-propan-1-one], the negative-log Ki (pKi) is 7.65 at GABA A receptor α3β3γ2, 7.55 on GABA A receptor α2β3γ2, 7.49 at GABA A receptor α1β3γ2 and 8.57 at GABA A receptor α5β3γ2.

Regarding `O=C(c1ncn2c1Cn1ncnc1-c1cc(Cl)ccc1-2)C1CC1` [Example 6, Cyclopropyl-[3-chloro-9H-imidazo[1,5-a][1,2,4]triazolo[1,5-d][1,4]benzodiazepin-10-yl]-methanone], the pKi on GABA A receptor α3β3γ2 was 7.70; on GABA A receptor α2β3γ2 it was 7.74; at GABA A receptor α1β3γ2 it was 7.84; on GABA A receptor α5β3γ2, 8.66.

For `O=C1CCCN1C(=O)c1ncn2c1Cn1ncnc1-c1cc(F)ccc1-2` [Example 9, 1-[[3-Fluoro-9H-imidazo[1,5-a][1,2,4]triazolo[1,5-d][1,4]benzodiazepin-10-yl]carbonyl]-2-pyrrolidinone], the pKi on GABA A receptor α3β3γ2 is 8.05; at GABA A receptor α2β3γ2, 7.91; at GABA A receptor α1β3γ2, 7.91; on GABA A receptor α5β3γ2 it was 8.24.

Consider `C#CCNC(=O)c1ncn2c1Cn1ncnc1-c1cc(F)ccc1-2` [Example 10, 3-Fluoro-9H-imidazo[1,5-a][1,2,4]triazolo[1,5-d][1,4]benzodiazepine-10-carboxylic acid prop-2-ynylamide], for which the pKi at GABA A receptor α3β3γ2 is 7.19; at GABA A receptor α2β3γ2, 7.17; on GABA A receptor α5β3γ2, 7.17. For the same compound, the Ki at GABA A receptor α1β3γ2 was 242 nM.

`CCOC(=O)c1ncn2c1Cn1ncnc1-c1cc(C3CC3)ccc1-2` [Example 12, Ethyl 3-cyclopropyl-9H-imidazo[1,5-a][1,2,4]triazolo[1,5-d][1,4]benzodiazepine-10-carboxylate]: the negative-log Ki (pKi) on GABA A receptor α3β3γ2 was 9.15; on GABA A receptor α2β3γ2, 9.05; on GABA A receptor α1β3γ2 it was 8.77; on GABA A receptor α5β3γ2, 9.22.

For the compound `CCOC(=O)c1ncn2c1Cn1ncnc1-c1cc(OC)ccc1-2` [Example 14, Ethyl 3-methoxy-9H-imidazo[1,5-a][1,2,4]triazolo[1,5-d][1,4]benzodiazepine-10-carboxylate], the negative-log Ki (pKi) on GABA A receptor α3β3γ2 is 9.05; at GABA A receptor α2β3γ2 it was 8.77; at GABA A receptor α1β3γ2, 9.05; on GABA A receptor α5β3γ2 it was 9.70.

Take `CCOC(=O)c1ncn2c1Cn1ncnc1-c1cc(OC(F)(F)F)ccc1-2` [Example 19, Ethyl 3-trifluoromethoxy-9H-imidazo[1,5-a][1,2,4]triazolo[1,5-d][1,4]benzodiazepine-10-carboxylate]: the pKi is 8.85 at GABA A receptor α3β3γ2, 8.96 at GABA A receptor α2β3γ2, 8.47 at GABA A receptor α1β3γ2 and 9.15 on GABA A receptor α5β3γ2.

As for `O=Cc1ncn2c1Cn1ncnc1-c1cc(Cl)ccc1-2` [Example 21, 3-Chloro-9H-imidazo[1,5-a][1,2,4]triazolo[1,5-d][1,4]benzodiazepine-10-carbaldehyd], the negative logarithm of the Ki (pKi) at GABA A receptor α3β3γ2 is 7.14; on GABA A receptor α5β3γ2, 8.23. Moreover, the results for the inhibitory constant (Ki) on GABA A receptor α2β3γ2 and at GABA A receptor α1β3γ2 were 134 nM and 223 nM, respectively.

Take `CCOC(=O)c1ncn2c1Cn1ncnc1-c1cc(Br)ccc1-2` [Example 23, Ethyl 3-bromo-9H-imidazo[1,5-a][1,2,4]triazolo[1,5-d][1,4]benzodiazepine-10-carboxylate]: the inhibition constant Ki on GABA A receptor α3β3γ2 turned out to be 1.8 nM; on GABA A receptor α2β3γ2, 3.8 nM; at GABA A receptor α1β3γ2 it was 1.9 nM; on GABA A receptor α5β3γ2, 0.3 nM.

Take `C#Cc1ccc2c(c1)-c1ncnn1Cc1c(C(=O)OCC)ncn1-2` [Example 24, Ethyl 3-ethynyl-9H-imidazo[1,5-a][1,2,4]triazolo[1,5-d][1,4]benzodiazepine-10-carboxylate]: the pKi is 8.19 on GABA A receptor α3β3γ2, 8.36 at GABA A receptor α2β3γ2, 7.97 at GABA A receptor α1β3γ2 and 9.22 at GABA A receptor α5β3γ2.

As for `COCCOC(=O)c1ncn2c1Cn1ncnc1-c1cc(Br)ccc1-2` [Example 25, 2-Methoxy-ethyl 3-bromo-9H-imidazo[1,5-a][1,2,4]triazolo[1,5-d][1,4]benzodiazepine-10-carboxylate], the negative-log Ki (pKi) at GABA A receptor α3β3γ2 is 7.73; on GABA A receptor α2β3γ2, 7.55; on GABA A receptor α1β3γ2, 7.69; at GABA A receptor α5β3γ2, 8.85.

Regarding `CCCC(=O)c1ncn2c1Cn1ncnc1-c1cc(Br)ccc1-2` [Example 26, 1-[3-Bromo-9H-imidazo[1,5-a][1,2,4]triazolo[1,5-d][1,4]benzodiazepin-10-yl]-butan-1-one], the negative logarithm of the Ki (pKi) is 7.14 on GABA A receptor α3β3γ2, 7.07 at GABA A receptor α1β3γ2 and 8.46 at GABA A receptor α5β3γ2. In addition, on GABA A receptor α2β3γ2, the inhibition constant (Ki) was found to be 106 nM.

In the case of `CC(C)CC(=O)c1ncn2c1Cn1ncnc1-c1cc(Br)ccc1-2` [Example 31, 1-[3-Bromo-9H-imidazo[1,5-a][1,2,4]triazolo[1,5-d][1,4]benzodiazepin-10-yl]-3-methyl-butan-1-one], the Ki on GABA A receptor α3β3γ2 amounted to 173 nM; at GABA A receptor α2β3γ2, 261 nM; on GABA A receptor α1β3γ2 it was 243 nM. This compound gave a negative-log Ki (pKi) at GABA A receptor α5β3γ2 of 8.08.

`O=C(CCc1ccccc1)c1ncn2c1Cn1ncnc1-c1cc(Br)ccc1-2` [Example 33, 1-[3-Bromo-9H-imidazo[1,5-a][1,2,4]triazolo[1,5-d][1,4]benzodiazepin-10-yl]-3-phenyl-propan-1-one]: the results for the Ki on GABA A receptor α3β3γ2, at GABA A receptor α2β3γ2 and on GABA A receptor α1β3γ2 were 133 nM, 160 nM and 109 nM, respectively. The compound further gave a pKi at GABA A receptor α5β3γ2 of 8.42.

Consider `CCOC(=O)c1ncn2c1Cn1ncnc1-c1cc(NC(=O)C(F)(F)F)ccc1-2` [Example 38, Ethyl 3-(2,2,2-trifluoro-acetylamino)-9H-imidazo[1,5-a][1,2,4]triazolo[1,5-d][1,4]benzodiazepine-10-carboxylate], for which the negative-log Ki (pKi) on GABA A receptor α3β3γ2 is 8.24; at GABA A receptor α2β3γ2, 8.14; on GABA A receptor α1β3γ2, 8.51; on GABA A receptor α5β3γ2, 8.92.

As for `CCOC(=O)c1ncn2c1Cn1ncnc1-c1cc(NC(=O)C(C)C)ccc1-2` [Example 39, Ethyl 3-isobutyrylamino-9H-imidazo[1,5-a][1,2,4]triazolo[1,5-d][1,4]benzodiazepine-10-carboxylate], the pKi is 7.40 on GABA A receptor α3β3γ2, 7.13 at GABA A receptor α2β3γ2, 7.94 on GABA A receptor α1β3γ2 and 8.19 on GABA A receptor α5β3γ2.

As for `CCOC(=O)c1ncn2c1Cn1ncnc1-c1cc(NC(=O)CCOC)ccc1-2` [Example 41, Ethyl 3-(3-methoxy-propionylamino)-9H-imidazo[1,5-a][1,2,4]triazolo[1,5-d][1,4]benzodiazepine-10-carboxylate], the pKi at GABA A receptor α3β3γ2 is 7.75; on GABA A receptor α2β3γ2, 7.61; at GABA A receptor α1β3γ2 it was 8.01; on GABA A receptor α5β3γ2, 8.29.

As to `CCOC(=O)c1ncn2c1Cn1ncnc1-c1cc(NC=O)ccc1-2` [Example 42, Ethyl 3-formylamino-9H-imidazo[1,5-a][1,2,4]triazolo[1,5-d][1,4]benzodiazepine-10-carboxylate], the pKi is 8.31 on GABA A receptor α3β3γ2, 8.07 at GABA A receptor α2β3γ2, 8.19 on GABA A receptor α1β3γ2 and 8.70 at GABA A receptor α5β3γ2.
